Assay [1] concerns Staphylococcus aureus ATCC 43300. To be noted: S. aureus ATCC 43300, cited from earlier work.
The subject of assay [2] is Staphylococcus aureus ATCC 29213. To be noted: cited from earlier work.
The subject of assay [3] is Staphylococcus aureus ATCC 43300. Put plainly: AST QC assay on AD-1 instrument, QC isolate S. aureus ATCC 43300. Type of assay: cell-based. The conditions noted are these: resistance phenotype. An excerpt: The reportable range for the AST QC assay in some examples are adjusted such that the selected QC isolates have an MIC that is within the reportable range of the QC Assay. These extended ranges are only applied to QC testing and are not applied to AST assessment of patient samples. The process for assigning an MIC value to the QC organisms is the same or similar to that used for patient samples. […] This approach allows testing of, for example, CLSI recommended QC isolates without affecting the algorithms that are optimized around antimicrobial breakpoints. The algorithms used in ID QC or AST QC testing include those described above, for example, when the QC test samples are microbial isolates. For ID QC testing utilizing target microbial nucleic acids coupled to a bead, positive detection is achieved by comparing the cumulative count in the target (e.g., Green fluorescence channel) only against a threshold of objects that have brightness exceeding bead autofluorescence. Negative control detection is achieved by doing the same for eubacteria (e.g., Red fluorescence) channel only. […]
The results of the identification assay drive antibiotic selection for antimicrobial susceptibility testing. […] The concentration of organisms in the purified inoculum was determined by repeating the quantitation process with a universal nucleic acid stain as previously described herein. […]

In assay [4] the test system is methicillin-resistant S. aureus (MRSA). Description: Time-lapse imaging of isolates growing in cefoxitin (MRSA). Type of assay: cell-based. The conditions noted are these: by 4.5 hours (FIG. 90). The procedure: (§1) The results of the identification assay drive antibiotic selection for antimicrobial susceptibility testing. The remaining samples undergo a pre-growth step to normalize growth rates during the approximately 1-hour FISH ID assay. The concentration of organisms in the purified inoculum was determined by repeating the quantitation process with a universal nucleic acid stain as previously described herein. […] Following cell immobilization, antimicrobial solutions in Mueller-Hinton agar were dispensed into the flowcells. Different antimicrobials were tested in separate flowcells, and only a single concentration of each antimicrobial was used. A growth control consisting of Mueller-Hinton agar without any antimicrobial was included for each run. A dark-field microscope and camera produced time-lapse images approximately every 10 minutes of progenitor cells growing into clones of daughter cells in each flowcell. The agar ensured daughter cells were immobilized and remained localized to each growing clone. Resistant clones grew while susceptible clones arrest or lyse over time (FIG. 90).

In assay [5] the test system is methicillin-susceptible S. aureus (MSSA). Description: Time-lapse imaging of isolates growing in cefoxitin (MSSA). It is filed as cell-based. The conditions noted are these: by 4.5 hours (FIG. 90). The procedure: as §1
In assay [6] the test system is Staphylococcus aureus ATCC 29213. Description: AST QC assay on AD-1 instrument, QC isolate S. aureus ATCC 29213. It is filed as cell-based. The conditions noted are these: for Result (phenotypic positive/negative test): resistance phenotype; for Result (MIC value): unit assumed.
Excerpt: (§2) The reportable range for the AST QC assay in some examples are adjusted such that the selected QC isolates have an MIC that is within the reportable range of the QC Assay. These extended ranges are only applied to QC testing and are not applied to AST assessment of patient samples. The process for assigning an MIC value to the QC organisms is the same or similar to that used for patient samples. […] This approach allows testing of, for example, CLSI recommended QC isolates without affecting the algorithms that are optimized around antimicrobial breakpoints. The algorithms used in ID QC or AST QC testing include those described above, for example, when the QC test samples are microbial isolates. For ID QC testing utilizing target microbial nucleic acids coupled to a bead, positive detection is achieved by comparing the cumulative count in the target (e.g., Green fluorescence channel) only against a threshold of objects that have brightness exceeding bead autofluorescence. Negative control detection is achieved by doing the same for eubacteria (e.g., Red fluorescence) channel only. For example, the number of bright red objects should not exceed a threshold in order to pass negative control.
In addition, the CLSI required QC isolates for the relevant antimicrobial resistance phenotype assays (MRSA/MSA, and MLSb) may also be tested. When following CLSI recommendations, routine testing of a designated susceptible isolate as well as testing of designated resistant isolates for each new lot and/or new shipment of reagent kits should be performed. These isolates, therefore, may be included in the QC Assay. For example, Cefoxitin may be tested with Staphylococcus aureus ATCC 29213 as the susceptible isolate and Staphylococcus aureus ATCC 43300 may be tested as the resistant isolate.
as §1
Custom image analysis software assigned unique spatial XY coordinates to individual progenitor cells (FIG. 91), allowing each growing clone across a series of time-lapse images to be identified. The intensity of each clone can be used as a metric of clone mass in each image. By measuring over time, this metric was used to generate growth curves for each individual clone (FIG. 92). The pattern of cell responses was used to determine the susceptibility of the overall population. […]

Assay [7] deals with Escherichia coli ATCC 25922. To be noted: in µg/mL (unit assumed), cited from earlier work; for Expected (MIC acceptance range): E. coli ATCC 25922.
Assay [8] concerns Escherichia coli ATCC 25922. Put plainly: AST QC assay on AD-1 instrument, QC isolate E. coli ATCC 25922. Type of assay: cell-based. To be noted: unit assumed.
Excerpt: as §2, §1
Custom image analysis software assigned unique spatial XY coordinates to individual progenitor cells (FIG. 91), allowing each growing clone across a series of time-lapse images to be identified. The intensity of each clone can be used as a metric of clone mass in each image. By measuring over time, this metric was used to generate growth curves for each individual clone (FIG. 92). The pattern of cell responses was used to determine the susceptibility of the overall population. Computer algorithms developed for each organism-antimicrobial combination convert microbial growth response into an MIC value using a mathematical regression model based on the response of isolates with known MICs for a single-concentration of a given antimicrobial. Once obtained, MIC values were interpreted using FDA, CLSI or EUCAST breakpoints along with expert rules to determine the categorical result (susceptible (S), intermediate (I) or resistant (R)). In addition to MICs, this technique was applied to phenotypic resistance mechanism detection.
In this example, the AST QC consumable insert consisted of 8 wells configured in a “pi” shape, as shown in the dark gray shading in FIG. 109. The AST QC panel was composed of seven CLSI recommended isolates that provide “on-scale” MIC results for all of the antimicrobial agents included in a sample blood culture test. A C. albicans isolate was used for Quality Control assessment of the […] component of the AD-1 Instrument System.
Table 9 below lists each organism and the corresponding antimicrobial agent that was tested in the AST QC assay. […]

For assay [9], the system named is Escherichia coli ATCC 35218. Put plainly: AST QC assay on AD-1 instrument, QC isolate E. coli ATCC 35218. It is filed as cell-based. The conditions noted are these: unit assumed.
Excerpt: as §2
as §1, with “A dark-field microscope and camera produced time-lapse images approximately every 10 minutes of progenitor cells growing into clones of daughter cells in each flowcell. The agar ensured daughter cells were immobilized and remained localized to each growing clone. Resistant clones grew while susceptible clones arrest or lyse over time (FIG. 90).” left out

Another assay has as its system Pseudomonas strains. Put plainly: Growth of Pseudomonas strains in nutrient-depleted vs standard Mueller-Hinton media with antibiotic, automated microscopy. Type of assay: cell-based. How it is done:
A series of growth media was formulated with […] strength of standard Mueller-Hinton nutrients (3 g beef infusion 17.5 g casein hydrolysate, 1.5 g starch, the final product being pH adjusted to neutral at 25° C.) while maintaining the agar concentration at 0.94% in the culture media. The effect of this depleted-nutrient media formulation on bacterial cell growth was evaluated with more than 50 strains of Pseudomonas in the presence of a panel of beta-lactam antibiotics. Cells were imaged using automated microscopy as described above. […] FIGS. 85A-C plots the log of bacterial dark phase intensity versus time, which is proportional to measuring cell mass in culture. FIGS. 85D-F are a quantitative representation of the data presented in panels FIGS. 85A-C expressed as rate of bacterial cell division.

The values below come from patent publication US10253355B2, “Instrument and system for rapid microorganism identification and antimicrobial agent susceptibility testing” (Accelerate Diagnostics, Inc., priority 2015, dated 2019).

Where two headings read alike, the source gives them in different places.

Consider `CO[C@@]1(NC(=O)Cc2cccs2)C(=O)N2C(C(=O)O)=C(COC(N)=O)CS[C@@H]21` [Cefoxitin], for which the “Organism QC Range (Positive/Negative phenotype)” value in assay [1] (AST QC panel (Table 9)) was “Positive”; in [2] (AST QC panel (Table 9), S. aureus ATCC 29213), “Negative”. The “Expected (phenotypic positive/negative test)” value in assay [1] (AST only report (Table 10)) is on record as “POS”; in [1] (ID and AST report (Table 11)), “POS”; in assay [2] (AST only report (Table 10), S. aureus ATCC 29213), “NEG”; in assay [2] (ID and AST report (Table 11), S. aureus ATCC 29213), “NEG”. The “Result (phenotypic positive/negative test)” value in assay [3] (AST only report (Table 10)) is “POS”; in assay [3] (ID and AST report (Table 11)) it was “POS”; in assay [6] (AST only report (Table 10)), “NEG”; in assay [6] (ID and AST report (Table 11)), “NEG”. In addition, the “Clone growth in time-lapse images” value in assay [4] is given as “continue to grow”; in assay [5], “arrested or lysed”.

With `CO/N=C(\C(=O)N[C@@H]1C(=O)N2C(C(=O)O)=C(CSc3nc(=O)c(=O)[nH]n3C)CS[C@H]12)c1csc(N)n1` [Ceftriaxone], the “Organism QC Range (MIC)” value in assay [7] (AST QC panel (Table 9), CLSI recommended isolate E. coli ATCC 25922) is 0.03-0.12. Besides, the “Expected (MIC acceptance range)” value is reported as 0.03-0.125 in assay [7] (AST only report (Table 10)); 0.03-0.125 in assay [7] (ID and AST report (Table 11)). Moreover, the Result (MIC value) stood at 0.0525 µg/mL in assay [8] (AST only report (Table 10)); 0.0525 µg/mL in assay [8] (ID and AST report (Table 11)).

Consider `CC[C@H]1OC(=O)[C@H](C)[C@@H](O[C@H]2C[C@@](C)(OC)[C@@H](O)[C@H](C)O2)[C@H](C)[C@@H](O[C@@H]2O[C@H](C)C[C@H](N(C)C)[C@H]2O)[C@](C)(O)C[C@@H](C)C(=O)[C@H](C)[C@@H](O)[C@]1(C)O` [Erythromycin], for which the “Organism QC Range (MIC)” value in assay [2] (AST QC panel (Table 9), CLSI recommended isolate S. aureus ATCC 29213, in µg/mL (unit assumed)) is listed as 0.25-1. The “Expected (MIC acceptance range)” value in [2] (AST only report (Table 10), S. aureus ATCC 29213, in µg/mL (unit assumed)) was 0.25-1. Further, in [6] (AST only report (Table 10)), the Result (MIC value) came to 0.6 µg/mL.

Consider Ampicillin-Sulbactam, for which the Result (MIC value) in assay [9] (AST only report (Table 10)) was determined as 16 µg/mL.

Take Piperacillin-Tazobactam: the Result (MIC value) in assay [9] (AST only report (Table 10)) came out at 1 µg/mL; in [9] (ID and AST report (Table 11)), 1 µg/mL. In addition, the “Susceptibility of the bacteria” value with Pseudomonas strains (Pseudomonas isolate of FIGS. 85A-F) was “susceptible”. In addition, in the assay on Pseudomonas strains (nutrient-depleted media (approx. 87% reduction in Mueller-Hinton nutrients), within 3.5 hours), the “Bacterial growth / replication pattern in presence of antibiotic” value is given as “substantially impaired growth”. In addition, in the assay with Pseudomonas strains (standard Mueller-Hinton media, 2 to 3.5 hours of exposure), the “Antibiotic effect on filamentous cells” value is given as “no discernable antibiotic effect”.

For the molecule Trimethoprim-Sulfamethoxazole, the Result (MIC value) in assay [6] (AST only report (Table 10)) is 0.25 µg/mL; in [6] (ID and AST report (Table 11)), 0.25 µg/mL.
